Source: the Deep4Chem optical property database
Several values for one entry are separate records, joined by “and”; a condition that tells them apart may be missing. Equal values may be shown once.

Assay: photoluminescence quantum yield (fraction); solvent given as SMILES
[1] = in c1cc(-c2cccc(-n3c4ccccc4c4ccccc43)c2)cc(-n2c3ccccc3c3ccccc32)c1
[2] = in O=P(c1ccccc1)(c1ccccc1)c1ccccc1Oc1ccccc1P(=O)(c1ccccc1)c1ccccc1

CC(C)(C)c1ccc(C2=C(c3ccc(-n4c5ccc(C(C)(C)C)cc5c5cc(C(C)(C)C)ccc54)cc3)S(=O)(=O)c3c2sc(-c2ccc(-n4c5ccc(C(C)(C)C)cc5c5cc(C(C)(C)C)ccc54)cc2)c3-c2ccc(C(C)(C)C)cc2)cc1
photoluminescence quantum yield (in C1CCOC1): 0.164

CC[N+]1(CC)CN2C(=N1)C(C(=O)O)=Cc1c2ccc2ccccc12
photoluminescence quantum yield (in O): 0.711

CCCCCCCCCCCCN1C(=O)c2c(c3ccc4cc(-c5ccc(Cl)cc5)c(OC)cc4c3c3c2ccc2cc(-c4ccc(Cl)cc4)c(OC)cc23)C1=O
photoluminescence quantum yield (in ClCCl): 0.144

CN(C)c1ccc(C(=Cc2ccc(/C=C/c3ccc(C#N)cc3)cc2)c2ccc(N(C)C)cc2)cc1
photoluminescence quantum yield (in C1CCOC1): 0.042

CC(C)(C)c1ccc(Oc2cc3c4c(cc(Oc5ccc(C(C)(C)C)cc5)c5c6c(Oc7ccc(C(C)(C)C)cc7)cc7c8c(cc(Oc9ccc(C(C)(C)C)cc9)c(c2c45)c86)C(=O)N(Cc2ccccc2)C7=O)C(=O)N(Cc2ccccc2)C3=O)cc1
photoluminescence quantum yield (in ClC(Cl)Cl): 0.73

C=CCNS(=O)(=O)c1ccc2c(c1)C(=O)/C(=C1\Sc3ccc(S(=O)(=O)NCC=C)cc3C1=O)S2
photoluminescence quantum yield (in CN(C)C=O): 0.197
photoluminescence quantum yield (in CS(C)=O): 0.006

FC(F)(F)c1ccccc1B1c2ccccc2N(c2ccccc2)c2ccccc21
photoluminescence quantum yield (in ClCCl): 0.79

Cc1cc(C)c(B(c2c(C)cc(C)cc2C)N2c3ccccc3C(C)(C)c3ccccc32)c(C)c1
photoluminescence quantum yield (in C1CCCCC1): 0.931
photoluminescence quantum yield (in Cc1ccccc1): 0.802
photoluminescence quantum yield (in ClCCl): 0.9

CC(C)(C)c1ccc2c(c1)c1cc(C(C)(C)C)ccc1n2-c1ccc(N(c2ccc(-c3ccc(-c4ccc(-c5ccc(-c6ccc(N(c7ccc(-n8c9ccc(C(C)(C)C)cc9c9cc(C(C)(C)C)ccc98)cc7)c7ccc(-n8c9ccc(C(C)(C)C)cc9c9cc(C(C)(C)C)ccc98)cc7)cc6)cc5)c5nsnc45)cc3)cc2)c2ccc(-n3c4ccc(C(C)(C)C)cc4c4cc(C(C)(C)C)ccc43)cc2)cc1
photoluminescence quantum yield (in ClCCl): 0.03

COc1ccc2cc([C@H](C)C(=O)O)ccc2c1
photoluminescence quantum yield (in C1CCOC1): 0.45
photoluminescence quantum yield (in CC#N): 0.31
photoluminescence quantum yield (in CC(C)O): 0.23
photoluminescence quantum yield (in CCCCO): 0.17
photoluminescence quantum yield (in CCO): 0.18
photoluminescence quantum yield (in CO): 0.18
photoluminescence quantum yield (in ClCCl): 0.32
photoluminescence quantum yield (in O): 0.41

c1cc(-c2c3ccccc3c(-c3ccc4ccccc4c3)c3ccccc23)cc(-n2c3ccccc3c3ccccc32)c1
photoluminescence quantum yield (in ClCCl): 0.73

CC1(C)c2ccccc2N(c2ccc3c(c2)c2cc(N4c5ccccc5C(C)(C)c5ccccc54)ccc2c2nc4ccccc4nc32)c2ccccc21
photoluminescence quantum yield [1]: 0.84

CC1=[N+]2C(=C(c3ccc(C(=C(c4ccccc4)c4ccccc4)c4ccccc4)cc3)c3ccc(C)n3[B-]2(F)F)C=C1
photoluminescence quantum yield (in C1CCOC1): 0.038

C(#Cc1cc2ccc3cccc4ccc(c1)c2c34)c1ccccc1
photoluminescence quantum yield (in Cc1ccccc1): 0.44

CCCCCCN1C(=O)c2cccc3cc(/N=C\c4cn(C)c5ccccc45)cc(c23)C1=O
photoluminescence quantum yield (in ClC(Cl)Cl): 0.03

C[Si](C)(c1ccc2cc3ccccc3cc2c1)[Si](C)(C)c1ccc2cc3ccccc3cc2c1
photoluminescence quantum yield (in C1CCCCC1): 0.18
photoluminescence quantum yield (in CC#N): 0.04

Cc1cc(=O)c2c(ccc3ccc(O)cc32)o1
photoluminescence quantum yield (in CC#N): 0.02

c1ccc2c(c1)Oc1ccccc1N2c1ccc2c(c1)c1ccccc1n1c3ccccc3nc21
photoluminescence quantum yield [2]: 0.8

CN(C)c1ccc(-c2ccc(-c3cc(N4CCCCC4)c(C#N)c4c3-c3ccccc3CC4)s2)cc1
photoluminescence quantum yield (in C1CCOC1): 0.85

Cc1nc(-c2cc(F)ccc2O)n2c1CCCC2
photoluminescence quantum yield (in ClCCl): 0.72

CC1(C)Cc2c(c3ccccc3c3nc4ccccc4nc23)O1
photoluminescence quantum yield (in C1CCCCC1): 0.082
photoluminescence quantum yield (in C1CCOC1): 0.13
photoluminescence quantum yield (in CN(C)C=O): 0.44
photoluminescence quantum yield (in CO): 0.37
photoluminescence quantum yield (in ClC(Cl)Cl): 0.26
photoluminescence quantum yield (in c1ccccc1): 0.2

COc1ccc2c3ccc(OC)cc3n(-c3ccc(-c4nnc(-c5c(C(C)C)cc(C(C)C)cc5C(C)C)o4)cc3)c2c1
photoluminescence quantum yield (in Cc1ccccc1): 0.03

CC1(C)CC(/C=C/c2ccc(N3CCOCCOCCOCCOCC3)cc2)=CC(=C(C#N)C#N)C1
photoluminescence quantum yield (in CCO): 0.111

COC(=O)c1[nH]c(-c2ccccc2)c2nnc3c4ccccc4oc3c12
photoluminescence quantum yield (in ClCCl): 0.167

C#CCNC1=C2C(C)=CC(C)=[N+]2[B-](F)(F)n2c(C)cc(C)c21
photoluminescence quantum yield (in C1CCCCC1): 0.23
photoluminescence quantum yield (in CC(C)=O): 0.063
photoluminescence quantum yield (in CCOC(C)=O): 0.084
photoluminescence quantum yield (in CO): 0.051
photoluminescence quantum yield (in OCC(F)(F)F): 0.074

CCCCCCCCOc1ccc(C#Cc2ccc3oc4ccccc4c3c2)c(OCCCCCCCC)c1
photoluminescence quantum yield (in ClCCl): 0.45

COc1ccc(C(=O)OCc2c(C)c(=O)n3c(=O)c(C)c(C)n23)cc1
photoluminescence quantum yield (in CCO): 0.637

CC(C)(C)c1ccc(C2=C(c3ccc(C(C)(C)C)cc3)C(c3ccc(C(C)(C)C)cc3)=[N+]3C2=C(c2ccccc2)c2c(-c4ccc(C(C)(C)C)cc4)c(-c4ccc(C(C)(C)C)cc4)c(-c4ccc(C(C)(C)C)cc4)n2[B-]3(F)F)cc1
photoluminescence quantum yield (in C1CCCCC1): 0.32
photoluminescence quantum yield (in C1CCOC1): 0.3
photoluminescence quantum yield (in CC#N): 0.25
photoluminescence quantum yield (in Cc1ccccc1): 0.57
photoluminescence quantum yield (in ClCCl): 0.45

COc1ccc(C2=CC(c3ccc4ccccc4c3)=[O+][B-](C(C)=O)(C(C)=O)O2)cc1
photoluminescence quantum yield (in CC#N): 0.6
photoluminescence quantum yield (in ClC(Cl)(Cl)Cl): 0.8

CCN(CC)c1ccc2cc(-c3nc4c5ccccc5c5ccccc5c4n3-c3ccc(C(C)(C)C)cc3)c(=O)oc2c1
photoluminescence quantum yield (in ClCCl): 0.97

CC1(C)c2ccccc2N(c2ccc3nc4c5ccc(N6c7ccccc7C(C)(C)c7ccccc76)cc5c5cc(N6c7ccccc7C(C)(C)c7ccccc76)ccc5c4nc3c2)c2ccccc21
photoluminescence quantum yield [1]: 0.89

F[B-]1(F)OC(c2ccccc2)=C(c2ccccc2)c2oc3ccccc3[n+]21
photoluminescence quantum yield (in C1CCOC1): 0.013

CCOC(=O)C1=C(N)n2c(=O)c3ccccc3c(=O)n2C1c1ccc(C)cc1 (stereo not drawn)
photoluminescence quantum yield (in CS(C)=O): 0.063

CCOC(=O)c1cc(C(=O)OCC)c2cc(OC)ccc2n1
photoluminescence quantum yield (in CCO): 0.53

CC(C)[Si](C#Cc1c2c(=O)c3ccccc3c2c(C#C[Si](C(C)C)(C(C)C)C(C)C)c2c(=O)c3ccccc3c12)(C(C)C)C(C)C
photoluminescence quantum yield (in ClC(Cl)Cl): 0.1

c1ccc(N(c2ccccc2)c2ccc3c(ccc4nc5ccc6cc(N(c7ccccc7)c7ccccc7)ccc6c5nc43)c2)cc1
photoluminescence quantum yield (in C1CCCCC1): 0.56
photoluminescence quantum yield (in C1CCOC1): 0.59
photoluminescence quantum yield (in CN(C)C=O): 0.34
photoluminescence quantum yield (in Cc1ccccc1): 0.44
photoluminescence quantum yield (in ClCCl): 0.64

F[B-]12OC(c3ccccc3)=Nc3cccc([n+]31)N=C(c1ccccc1)O2
photoluminescence quantum yield (in ClCCl): 0.2

CN(C)c1ccc2nc(-c3ccc(/C=N/c4ccccc4)cc3)sc2c1
photoluminescence quantum yield (in C1CCCCC1): 0.057
photoluminescence quantum yield (in CC#N): 0.72
photoluminescence quantum yield (in CO): 0.067
photoluminescence quantum yield (in ClC(Cl)Cl): 0.12

O=C1c2cc3ccccc3cc2C2=Nc3cccc[n+]3[B-](F)(F)N12
photoluminescence quantum yield (in ClCCl): 0.86

COc1cc2c3c4c(c5ccc(C(C)(C)C)cc5c5cc(C(C)(C)C)cc(c2c(OC)c1OC)c45)=[N+]1C3=Nc2c3c4cc(OC)c(OC)c(OC)c4c4cc(C(C)(C)C)cc5c6cc(C(C)(C)C)ccc6c(c3c54)n2[B-]1(F)F
photoluminescence quantum yield (in Cc1ccccc1): 0.07

CC(=O)c1c2c(c(C(C)=O)c3c1OC(CC(=O)O)O3)OCO2
photoluminescence quantum yield (in CC#N): 0.43

CCN(CC)c1ccc2cc(/C=C3\CCCc4c3[o+]c3cc(N(CC)CC)ccc3c4-c3ccccc3C(=O)O)c(=O)oc2c1
photoluminescence quantum yield (in ClCCl): 0.07

CC1CC=C(c2ccc(-c3ccc(C=O)s3)s2)CC1 (stereo not drawn)
photoluminescence quantum yield (in CCO): 0.43

CN(C)c1ccc(/C=C/c2cnc(C#Cc3ccc(C#N)cc3)o2)cc1
photoluminescence quantum yield (in ClCCl): 0.24

Cc1ccc(-c2ccc(-c3ccc(-c4ccc(C)cc4)cc3/C(=C(/c3ccccc3)c3cc(-c4ccc(C)cc4)ccc3-c3ccc(-c4ccc(C)cc4)cc3)c3ccccc3)cc2)cc1
photoluminescence quantum yield (in C1CCOC1): 0.3

CCCCCn1c2cc(/C=C/c3ccc(N(c4ccccc4)c4ccccc4)cc3)ccc2c2ccc(/C=C/c3ccc(N(c4ccccc4)c4ccccc4)cc3)cc21
photoluminescence quantum yield (in Cc1ccccc1): 0.81

CC1(C)c2ccccc2N(c2ccccc2)c2ccc(-c3ccc(C(=O)c4ccc(-c5ccc6c(c5)C(C)(C)c5ccccc5N6c5ccccc5)cc4)cc3)cc21
photoluminescence quantum yield [2]: 0.53

CN(C)c1ccc(/C=C/C=C/c2nc3ccccc3o2)cc1
photoluminescence quantum yield (in CC#N): 0.0055
photoluminescence quantum yield (in CCCCCC): 0.0176
photoluminescence quantum yield (in CCCCO): 0.0045
photoluminescence quantum yield (in CCCO): 0.0045
photoluminescence quantum yield (in CCO): 0.0048
photoluminescence quantum yield (in CN(C)C=O): 0.007
photoluminescence quantum yield (in CO): 0.0045
photoluminescence quantum yield (in Cc1ccccc1): 0.0078
photoluminescence quantum yield (in ClCCl): 0.0048
photoluminescence quantum yield (in OCC(O)CO): 0.0359
photoluminescence quantum yield (in OCCO): 0.0088

CSc1ccc(/C=C/c2cnc3ccccc3n2)cc1
photoluminescence quantum yield (in ClCCl): 0.02

CN(C)c1ccc(C#Cc2ccc(C#N)cc2)cc1
photoluminescence quantum yield (in C1CCCCC1): 0.455
photoluminescence quantum yield (in C1CCOC1): 0.4
photoluminescence quantum yield (in C1COCCO1): 0.066
photoluminescence quantum yield (in CC1CCCO1): 0.099
photoluminescence quantum yield (in CC#N): 0.024
photoluminescence quantum yield (in CC(C)=O): 0.49
photoluminescence quantum yield (in CC(C)CC(C)(C)C): 0.032
photoluminescence quantum yield (in CC(C)O): 0.006
photoluminescence quantum yield (in CCCCCCCCCCCCCCCC): 0.3
photoluminescence quantum yield (in CCCCCCCCCCCCCCCCCl): 0.33
photoluminescence quantum yield (in CCOC(C)=O): 0.33
photoluminescence quantum yield (in CCOCC): 0.29
photoluminescence quantum yield (in CN(C)C=O): 0.17
photoluminescence quantum yield (in CS(C)=O): 0.029
photoluminescence quantum yield (in Cc1ccccc1): 0.38

C(=C\c1cnc2ccccc2n1)/c1ccc(N(c2ccccc2)c2ccccc2)cc1
photoluminescence quantum yield (in ClCCl): 0.67

CC1(C)c2ccccc2N(c2ccc(-c3nnc(-c4cc(-c5ccccc5)c(-c5ccccc5)c(-c5ccccc5)c4-c4ccccc4)o3)cc2)c2ccccc21
photoluminescence quantum yield (in Cc1ccccc1): 0.235
photoluminescence quantum yield (in c1ccc(-n2c(-c3c(-n4c5ccccc5c5ccccc54)cccc3-n3c4ccccc4c4ccccc43)nc3ccccc32)cc1): 0.359

O=c1oc2c(ccc3ccccc32)nc1-c1ccccc1
photoluminescence quantum yield (in CC#N): 0.5
photoluminescence quantum yield (in CCCCCC): 0.32
photoluminescence quantum yield (in CO): 0.45
photoluminescence quantum yield (in c1ccccc1): 0.46 and 0.534
